Structures can show the parent of a compound that is named as a salt.
Experiments:
Assay type in all cases: in vivo
[1] = MIV-701/MIV-06404 plasma exposure ratio in dog; conditions: single oral administration, exposure ratio (peak area)
Description: Compound Ib besylate salt (referred to as MIV-701 besylate salt) was administered once daily for 14 days to 3 healthy beagle dogs at three different doses: 1 mg/kg, 10 mg/kg and 100 mg/kg.
Each treatment period can be resumed as follows: • J0 (T+24h): first Compound Ib besylate salt administration, withdrawal of blood samples for pharmacokinetic and plasma CTX-1 assessment (pre-dose and 0.5h, 1h, 2h, 4h, 8h and 24h after drug administration), pre-dose blood samples for hematology and clinical biochemistry (baseline values for safety assessment). • J1 to J12: pre-dose blood samples • J13: last Compound Ib besylate salt administration, withdrawal of plasma samples for pharmacokinetic and plasma CTX-1 assessment (pre-dose and 0.5h, 1h, 2h, 4h, 8h and 24h after drug administration), pre-dose sampling for hematology and clinical biochemistry (baseline values for safety assessment). • J15-J≥19: washout period.
After centrifugation of blood samples plasma aliquots were stored at -20°C. After thawing on ice, 30 µL of plasma were transferred into 1.5 ml microtube containing 270 µL acetonitrile. Microtubes were then vigorously stirred and then centrifuged (12000 rpm, 10 min, 4°C) and the supernatant was transferred in Matrix tube for LC-MS/MS analysis. Calibration curve (9 points, 3 to 30 000 nM) was obtained by spiking plasma samples from naive dogs with appropriate quantities of Compound Ib.
Equipment: LC-MS/MS Acquity I Class-Wevo TQD (Waters®): - Acquity I Class ∘ Column: Waters® Acquity BEH C8, 50*2.1mm, 1.7 µm (40°C) ∘ Mobile phase: • ▪ A: Ammonium Formate 5mM, pH=3.8 • ▪ B: Ammonimuformate 5 mM in CH3CN 5% aqueous, pH=3.8 ∘ Injection volume: 1 µL ∘ Speed: 600 µL/min ∘ Gradient: […]
- Xevo TQD ∘ Source temperature: 150°C ∘ Desolvatation temperature: 600°C ∘ Cone gaz speed: 50L/h ∘ Desolvatation gaz speed: 1200L/h - Analytes MS characteristics

CTX-1 = test: Plasma CTX-1 in client-owned dogs with alveolar bone loss induced by spontaneously developed periodontal disease
Description: (§1) The present study was performed on 10 Beagle dogs suffering from alveolar bone loss induced by spontaneously developed periodontal disease. All dogs were treated with MIV-701 besylate salt for minimum 30 day and maximum 90 days, depending on the tolerance at intermediate visits. The product is administrated to the dog by its owner at home, once a day with a meal.
(§2) There were two treatment groups: • Group A (5 dogs) with a dose of 25 mg/kg. • Group B (5 dogs) with a dose of 50 mg/kg.
Administration protocol and dosage: MIV-701 besylate salt was administrated to dog once-a-day, at home with a standard meal. It was allowed to administrate the capsule(s) with a small amount of wet food/favorite snack. Opening of the capsule and spilling the product over the food was forbidden.
Treatment was administrated for 90 days. Every 30 days, based on the results of clinical exam, blood parameters and potential occurrence of adverse events suspected to be drug-related, the treatment prolongation for another 30 days, or discontinuation of treatment was decided by the Investigator.
Whole blood sample for CTX-1 analysis was collected at visit V2 (Day 0), visit V3 (Day 30+3 days), Visit V4 (Day 60t 3 days) and Visit V5 (Day 90t 3 days).
Each time, the blood sample was collected after overnight fasting, between 08:00 and 10:00 in the morning. As far as possible the blood sample was taken at the same time each visit. The night before the visit, the Investigational Product was administrated to the dog at 21:00.
The result from visit V2 (Day 0) was used as a baseline value for the efficacy evaluation criteria.
Each time 2 ml of the peripheral whole blood was collected on an anti-coagulant tube (K2EDTA) and gently inverted several times. Next, sample was centrifuged at 1500 G for 10 minutes at room temperature. The obtained plasma was divided into two Eppendorf tubes labelled as "Aliquot 1" and "Aliquot 2". Minimum 0.5 ml was placed in "Aliquot 1" while the rest of plasma was placed in "Aliquot 2". All obtained aliquots were immediately stored at - 20°C on site.
The CTX-1 analysis was performed at the end of the study by Central Laboratory. The shipment of aliquots from site to Central Laboratory was organized by the Monitor and divided into two, separated in time shipments. One with all "Aliquot 1" samples and second one with all "Aliquot 2" samples. The CTX-1 SAMPLE SHIPMENT FORM was joined to the shipment.

[2] = test system: dogs with alveolar bone loss induced by spontaneously developed periodontal disease; test: Periodontal parameter assessment (CAL, PPD, bleeding) in dogs with periodontal disease; conditions: CTX-1 responders; Day-90 vs Day-0
Description: as §1, §2
The examination was performed at visit V2 (Day 0) and visit V5 (90t 3 days).
At visit V2 (Day 0) and V5 (90 ± 3 days). the Investigator evaluated the following parameters for each tooth: • Periodontal probing depth (PPD) - measured as the distance from the gingival margin to the bottom of the pocket using a graduated periodontal probe of Investigator's choice. The sulcus/pocket was measured circumferentially around the whole tooth and valued of 3 to 6 places, depending on the tooth localization (Figure 11). Measurements was done in millimeters (mm) and rounded to the nearest lower value. The mean PPD value of these measurements per tooth was calculated. • Clinical attachment loss (CAL) - measured as the distance from the cemento-enamel-junction to the bottom of the pocket using a periodontal probe of the Investigator choice. CAL was measured in 3 to 6 sites per tooth depending on the tooth localization (Figure 11). Measurements was done in millimeters (mm) and rounded to the nearest lower value (Kortegaard et al. 2014). The mean CAL value of these measurements per tooth will be calculated. • Bleeding Probing Index - assessed at each site of PPD and CAL measurement. Depending on the absence or presence of bleeding within 10 second following probing of the tooth, BPI scored either as 0 or 1 respectively. The mean BIP value was calculated per tooth.
At visit V5 (90t 3 days), the Investigator assessed PPD, CAL and BoP in only 3 selected teeth for the study and recorded it in PERIODONTAL PARAMETERS FORM.

Compound `CC(C)C[C@H](NC(=O)c1ccc(-c2csc(N3CCN(C)CC3)n2)cc1)C(=O)N1C[C@H](F)[C@H]2OCC(O)(O)[C@H]21` [MIV-701 besylate salt, N-[(S)-1-((3aS,6S,6aS)-6-Fluoro-S-oxo-hexahydro-furo[3,2-b]pyrrole-4-carbony)-3-methyl-butyl]-4-[2-(4-methyl-piperazin-1-yl)-thiazol-4-yl]-benzamide benzenesulphonate] has an MIV-701/MIV06404 ratio ([1]; 1 mg/kg) of 7.0, an MIV-701/MIV06404 ratio ([1]; 10 mg/kg) of 3.6 and an MIV-701/MIV06404 ratio ([1]; 100 mg/kg) of 3.3. The “patients with reduction in plasma CTX-1” value (CTX-1; 10 dogs, Day-90) was “all but one patient experienced reduction”, the “mean % change in CTX-1” value (CTX-1; CTX-1-responders (n=9), Day-90 vs Day-0) was -67%±6% and the “reduction of plasma CTX-1 vs baseline (Day-0)” value (CTX-1; dogs with periodontal disease, 25 and 50 mg/kg/day oral, Day-30 and Day-60, no significant difference between groups) was “comparable reduction”. The “reduction of plasma CTX-1 vs pre-treatment baseline” value (CTX-1; dogs with periodontal disease, Day-90 at 50 mg/kg/day, N=10) was “highly significant reduction”, the “Clinical Attachment Loss (CAL)” value [2] was “significantly improved” and the “Gingival Bleeding Index (GBI)” value [2] was “not modified”. The “Periodontal Probing Depth (PPD)” value [2] was “significantly improved”.

— patent publication EP4613273A1, “TREATMENT OF BONE LOSS” (priority 2024, dated 2025)
